The subject of one assay is GPR37. Put plainly: Ca2+ imaging (Fluo-4AM) in peritoneal macrophages (pMΦ) from WT and Gpr37−/− mice. The note with it: 30 nM; Gpr37-deficient pMΦ. In kind it is cell-based, mouse. The protocol:
(§1) Peritoneal macrophage culture. Peritoneal macrophages were collected by peritoneal lavage with 10 ml warm PBS containing of 1 mM EDTA. Cells were incubated in DMEM supplemented with 10% FBS at 37° C. for 2 h in petri dish and washed with PBS to eliminate non-adherent cells. The adherent cells were used as peritoneal macrophages. Peritoneal macrophages were used after 3 days of culture.
Calcium imaging. HEK 293 cells, with or without transfection of Gpr37, GPR32, ChemR23 or ALX1 cDNA, were loaded with 5 μM Fura-2AM (Invitrogen) for 1 hour and then were resuspended in normal external buffer (140 NaCl, 5 KCl, 2 CaCl2, 2 MgCl2, 10 HEPES, in mM, titrated to pH 7.4 with NaOH) or external Ca^2+-free buffer (140 NaCl, 2 MgCl2, 5 EGTA, 10 HEPES, in mM, titrated to pH 7.4 with NaOH). Peritoneal macrophages, collected from WT and Gpr37 KO mice, were loaded with 5 μM […] (Invitrogen) for 1 hour and then were resuspended in normal external buffer. Images of the HEK 293 cells and macrophages with the excitation wavelength of 340 nm and 380 nm were captured with a cooled Digital CMOS camera (ORCA-Flash 4.0, Hamamatsu Photonics K.K, Japan). The ratio of fluorescence intensity of the two wavelengths in each experiment was analyzed using MetaFluor (Molecular Devices). The Shutter speed and wavelength was controlled by Lambda DG-4 system (Sutter instrument Co., Novato, CA). Values from each of the experiments were normalized to the baseline ratio of 340/380 nm.
Next, we conducted GPR37-mediated Ca^2+ imaging in native pMΦ from WT and Gpr37^−/− mice using Fluo-4AM as a Ca^2+ indicator, since this dye works better than Fura-2AM for pMΦ. […] As compared to iCa^2+ increase in GPR37-expressing HEK293 cells, NPD1 trigger a slow-onset but more persistent Ca^2+ response in pMΦ (FIG. 2B and FIG. 2G). A relatively rapid calcium response in HEK293 cells may result from over-expression of GPR37. A sustained iCa^2+ increase in pMΦ may result from the expression of transient receptor potential (TRP) ion channels in these immune cells. It is noteworthy that macrophages express TRPV2 or TRPM2, which are involved in phagocytosis during bacterial infection. […] NPD1-triggered iCa^2+ increase in pMΦ is also Gi-dependent, since PTX blocked this increase (FIG. 2H). For comparison, ATP-evoked iCa^2+ increase was not altered in GPR37-deficient pMΦ (FIG. 2H).

The next assay has as its system pMΦ. Put plainly: ELISA of cytokines in zymosan-stimulated pMΦ cultures. Type of assay: cell-based, mouse. As for the experimental part:
FIG. 14A-FIG. 14C. NPD1 regulates cytokine expression in cultured macrophages via GPR37. ELISA showing the expression of pro-inflammatory cytokine IL-1β (FIG. 14A) and anti-inflammatory cytokines IL-10 (FIG. 14B) and TGF-β (FIG. 14C) in pMΦ from WT and Gpr37^−/− mice. pMΦ were stimulated with 100 μg/mL zymosan for 24 h. Note that NPD1 differentially regulates the expression of pro- and anti-inflammatory cytokines. *P<0.05; n=3 cultures/group. All the data are mean±SEM.
ELISA. Mouse ELISA kits for IL-1β, TGF-β and IL10 were purchased from R&D system (Minneapolis, MN, Catalog: MLB00C for IL-1β, Catalog: MB100B for TGF-β, and Catalog: M1000B for IL-10). ELISA was performed using culture medium and hindpaw skin tissues. Cultured cells and tissues were homogenized in a lysis buffer containing protease and phosphatase inhibitors. For each Elisa assay, 50 μg proteins or 50 μL of culture medium were used. ELISA was conducted according to manufacturer's instructions. The standard curve was included in each experiment.
as §1
Background: In an ELISA, binding on a coated surface is turned into a signal by an enzyme label.

The next assay deals with T1, GPR32 (Homo sapiens, UniProt O75388).
T1 construct: host or cells: HEK293 flip-in cells
T1 sequence (O75388 whole entry): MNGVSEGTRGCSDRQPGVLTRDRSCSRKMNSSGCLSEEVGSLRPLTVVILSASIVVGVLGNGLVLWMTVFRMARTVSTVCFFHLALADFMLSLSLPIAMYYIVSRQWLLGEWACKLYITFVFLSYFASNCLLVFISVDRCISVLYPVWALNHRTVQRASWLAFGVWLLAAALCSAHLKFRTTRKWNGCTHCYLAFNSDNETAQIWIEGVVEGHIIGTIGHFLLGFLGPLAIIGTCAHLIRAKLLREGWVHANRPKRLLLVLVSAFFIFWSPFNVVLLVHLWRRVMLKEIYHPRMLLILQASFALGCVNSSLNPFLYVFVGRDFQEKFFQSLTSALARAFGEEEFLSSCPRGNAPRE
Description: Dot blot binding assay, positive control GPR32. The protocol:
Lipids overlay assay. Lipids membrane coating and protein overlay assay was conducted as previously described (Ji R R, et al. Science 2016, 354, 572-577). Ethanol and chloroform soluble fatty acids were directly loaded on hydrophobic PVDF membrane (Bio-Rad). The fatty acids (NPD1, RvD1, RvE1, and DHA) coated membranes were dried and blocked with 1% BSA. The cell lysate and purified GPR37-V5 protein were incubated with the coating membrane for 2 h, and the binding was detected by anti-V5 tagged antibody (mouse, 1:1000, Thermo scientific, Catalog: 46-0705).
HEK cell culture and transfection. HEK293 flip-in cell line was purchased from Duke Cell Culture Facility. Cells were cultured in high glucose (4.5 g/L) Dulbecco's Modified Eagle's Medium containing 10% (v/v) fetal bovine serum (Gibco). Transfection (2 μg cDNA) was performed with Lonza electroporation (Lonza) at 70% confluency and the transfected cells were cultured in the same growth medium for 48 h before use. The hGPR37-V5 pLenti304 plasmids were obtained from DNASU (Tempe, AZ), and hGPR32, hChemR23 and hALX pcDNA3 plasmids were provided by Dr. Serhan from Harvard Medical School, Boston.
To determine whether NPD1 and TX14 bind to GPR37, we conducted dot blot assay by coating the blots with different concentrations of NPD1 and TX14 and included RvE1 as a control. […]

The mark [1] stands for this setting: pMΦ cultures, zymosan 100 μg/mL for 24 h.

The source of these data is patent US12521356B2, “Compositions and methods for treating pain, inflammation, infection, malaria, and sepsis” (Duke University, priority 2018, dated 2026).

Structures are written as SMILES.

On to `CC/C=C\C[C@H](O)\C=C/C=C/C=C/[C@H](O)C/C=C\C/C=C\CCC(=O)O` [NPD1, neuroprotectin D1], for which the “iCa2+ increase” value with GPR37 is on record as “abolished”. Further, in the assay with pMΦ (setting [1]), the IL-1β levels entry is listed as “suppressed”, the IL-10 levels entry is on record as “increased” and the TGF-β levels result is on record as “increased”. Besides, in the assay on pMΦ (pMΦ from WT and Gpr37−/− mice), the “dependence of cytokine effects on GPR37” value is on record as “required GPR37”.
Regarding `CC/C=C\C[C@H](O)/C=C/C=C\C=C\C=C\[C@@H](O)[C@@H](O)C/C=C\CCC(=O)O` [RvD1], the “binding to GPR32” value on GPR32 is given as “strong binding”.
